Test results from ChEMBL document CHEMBL4622864, “Synthesis and biological evaluation of quinoxaline derivatives as specific c-Met kinase inhibitors” (Bioorg Med Chem Lett, 2020).
pIC50: −log10 of the molar value.

Legend:
MKN-45 [1] = test: Antiproliferative activity against human MKN45 cells overexpressing c-MET assessed as reduction in cell proliferation; format: functional, cell-based
[2] = target: T1, Hepatocyte growth factor receptor (Homo sapiens, UniProt P08581); test: Inhibition of c-Met (unknown origin) by ADP-Glo kinase assay
T1 sequence (P08581 whole entry): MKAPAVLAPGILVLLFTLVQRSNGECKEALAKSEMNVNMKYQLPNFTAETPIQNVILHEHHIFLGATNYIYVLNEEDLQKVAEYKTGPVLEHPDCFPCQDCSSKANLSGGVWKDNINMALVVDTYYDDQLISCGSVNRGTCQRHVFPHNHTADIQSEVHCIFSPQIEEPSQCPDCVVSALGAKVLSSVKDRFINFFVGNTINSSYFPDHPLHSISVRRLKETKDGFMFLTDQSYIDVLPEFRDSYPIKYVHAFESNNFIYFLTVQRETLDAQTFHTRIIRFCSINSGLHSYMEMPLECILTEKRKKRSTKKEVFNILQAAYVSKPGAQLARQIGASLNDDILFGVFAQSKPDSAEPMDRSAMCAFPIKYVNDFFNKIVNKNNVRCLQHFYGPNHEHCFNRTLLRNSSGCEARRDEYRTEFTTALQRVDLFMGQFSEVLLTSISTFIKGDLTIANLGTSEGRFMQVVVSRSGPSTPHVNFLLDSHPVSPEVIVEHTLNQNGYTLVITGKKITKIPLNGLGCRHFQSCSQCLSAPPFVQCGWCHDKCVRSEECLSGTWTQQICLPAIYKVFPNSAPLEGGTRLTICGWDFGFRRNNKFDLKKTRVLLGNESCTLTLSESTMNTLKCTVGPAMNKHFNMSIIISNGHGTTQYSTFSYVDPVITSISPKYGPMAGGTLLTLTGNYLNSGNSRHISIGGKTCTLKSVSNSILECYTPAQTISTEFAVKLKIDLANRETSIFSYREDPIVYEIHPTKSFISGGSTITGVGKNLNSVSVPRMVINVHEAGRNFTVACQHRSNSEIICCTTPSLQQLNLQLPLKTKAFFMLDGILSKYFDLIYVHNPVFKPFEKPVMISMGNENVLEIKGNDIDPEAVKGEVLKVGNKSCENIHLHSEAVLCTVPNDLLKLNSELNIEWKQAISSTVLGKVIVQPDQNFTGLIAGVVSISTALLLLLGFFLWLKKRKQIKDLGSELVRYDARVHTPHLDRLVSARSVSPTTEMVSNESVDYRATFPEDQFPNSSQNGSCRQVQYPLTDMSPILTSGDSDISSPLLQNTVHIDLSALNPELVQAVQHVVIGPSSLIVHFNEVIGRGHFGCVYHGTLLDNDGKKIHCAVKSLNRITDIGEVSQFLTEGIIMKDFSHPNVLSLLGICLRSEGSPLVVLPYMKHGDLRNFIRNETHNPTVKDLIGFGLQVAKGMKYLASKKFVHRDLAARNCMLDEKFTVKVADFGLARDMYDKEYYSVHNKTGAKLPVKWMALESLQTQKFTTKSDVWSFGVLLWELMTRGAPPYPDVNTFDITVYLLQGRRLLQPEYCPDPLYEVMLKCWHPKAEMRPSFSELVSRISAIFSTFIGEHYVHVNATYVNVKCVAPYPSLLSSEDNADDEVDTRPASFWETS

MKN-45 [3] = test: Antitumor activity against human MKN45 cells xenografted in nude mouse assessed as tumor growth inhibition at 20 mg/kg, po administered once daily for 14 days relative to control; format: functional; conditions: MKN-45, po, 336 h, read-out: TGI
MKN-45 [4] = test: Antitumor activity against human MKN45 cells xenografted in po dosed nude mouse assessed as tumor growth inhibition administered once daily for 14 days; format: functional, organism-based
[5] = target: Tyrosine-protein kinase Lck (Homo sapiens) (UniProt P06239); test: Inhibition of LCK (unknown origin) at 100 nM relative to control
[6] = Metabolic stability in human microsomes assessed as parent compound remaining measured after 30 mins; format: ADME, Microsome; conditions: read-out: Stability
[7] = Metabolic stability in rat microsomes assessed as parent compound remaining measured after 30 mins; format: ADME, Microsome; conditions: read-out: Stability
[8] = Metabolic stability in mouse microsomes assessed as parent compound remaining measured after 30 mins; format: ADME, Microsome; conditions: read-out: Stability
CYP1A2 = CYP1A2 (Homo sapiens, UniProt P05177); test: Inhibition of CYP1A2 (unknown origin) at 10 uM relative to control; format: ADME
CYP2C9 = CYP2C9 (Homo sapiens, UniProt P11712); test: Inhibition of CYP2C9 (unknown origin) at 10 uM relative to control; format: ADME
CYP2C19 = CYP2C19 (Homo sapiens, UniProt P33261); test: Inhibition of CYP2C19 (unknown origin) at 10 uM relative to control; format: ADME
CYP2D6 = CYP2D6 (Homo sapiens, UniProt P10635); test: Inhibition of CYP2D6 (unknown origin) at 10 uM relative to control; format: ADME
CYP3A4 = CYP3A4 (Homo sapiens, UniProt P08684); test: Inhibition of CYP3A4 (unknown origin) at 10 uM relative to control; format: ADME
[9] = test system: Tyrosine-protein kinase ABL1 (Homo sapiens), P00519 [T315I]; test: Inhibition of ABL T315I mutant (unknown origin) 10 nM relative to control
[10] = test system: Tyrosine-protein kinase ABL1 (Homo sapiens), P00519 [T315I]; test: Inhibition of ABL T315I mutant (unknown origin) 100 nM relative to control
[11] = target: ALK tyrosine kinase receptor (Homo sapiens) (UniProt Q9UM73); test: Inhibition of ALK (unknown origin) at 10 nM relative to control
[12] = target: Tyrosine-protein kinase receptor UFO (Homo sapiens) (UniProt P30530); test: Inhibition of AXL (unknown origin) at 10 nM relative to control
[13] = target: Tyrosine-protein kinase receptor UFO (Homo sapiens) (UniProt P30530); test: Inhibition of AXL (unknown origin) at 100 nM relative to control
[14] = target: Mast/stem cell growth factor receptor Kit (Homo sapiens) (UniProt P10721); test: Inhibition of C-kit (unknown origin) at 10 nM relative to control
Chain of Mast/stem cell growth factor receptor Kit (Homo sapiens) (P10721 whole entry): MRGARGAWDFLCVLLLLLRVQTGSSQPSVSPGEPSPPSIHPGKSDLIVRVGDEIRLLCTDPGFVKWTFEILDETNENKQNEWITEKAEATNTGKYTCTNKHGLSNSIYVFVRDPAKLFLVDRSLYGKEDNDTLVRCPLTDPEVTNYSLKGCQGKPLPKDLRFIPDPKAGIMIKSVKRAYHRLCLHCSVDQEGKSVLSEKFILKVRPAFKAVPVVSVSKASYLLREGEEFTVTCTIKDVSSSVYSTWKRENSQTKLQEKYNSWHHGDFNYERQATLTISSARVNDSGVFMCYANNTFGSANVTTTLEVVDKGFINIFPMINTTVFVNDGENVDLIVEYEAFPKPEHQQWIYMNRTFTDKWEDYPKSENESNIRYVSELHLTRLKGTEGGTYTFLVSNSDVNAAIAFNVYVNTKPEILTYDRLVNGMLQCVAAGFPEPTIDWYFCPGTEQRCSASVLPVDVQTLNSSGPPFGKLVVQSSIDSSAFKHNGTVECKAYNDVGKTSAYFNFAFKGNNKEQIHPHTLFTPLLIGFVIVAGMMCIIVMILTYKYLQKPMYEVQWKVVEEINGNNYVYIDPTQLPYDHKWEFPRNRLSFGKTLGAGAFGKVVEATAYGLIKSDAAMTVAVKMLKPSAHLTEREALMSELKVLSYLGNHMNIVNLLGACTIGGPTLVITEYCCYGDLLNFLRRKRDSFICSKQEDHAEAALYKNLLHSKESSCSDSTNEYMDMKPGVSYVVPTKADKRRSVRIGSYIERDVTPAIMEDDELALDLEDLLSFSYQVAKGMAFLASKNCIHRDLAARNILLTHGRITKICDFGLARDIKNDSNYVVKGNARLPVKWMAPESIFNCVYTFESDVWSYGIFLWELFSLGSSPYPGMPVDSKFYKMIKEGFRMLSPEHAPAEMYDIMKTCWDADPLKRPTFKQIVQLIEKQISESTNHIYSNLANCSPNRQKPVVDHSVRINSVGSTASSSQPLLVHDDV

[15] = target: Mast/stem cell growth factor receptor Kit (Homo sapiens) (UniProt P10721); test: Inhibition of C-kit (unknown origin) at 100 nM relative to control
[16] = target: Proto-oncogene tyrosine-protein kinase Src (Homo sapiens) (UniProt P12931); test: Inhibition of c-SRC (unknown origin) at 10 nM relative to control
Chain of Proto-oncogene tyrosine-protein kinase Src (Homo sapiens) (P12931 2-536 limits assumed): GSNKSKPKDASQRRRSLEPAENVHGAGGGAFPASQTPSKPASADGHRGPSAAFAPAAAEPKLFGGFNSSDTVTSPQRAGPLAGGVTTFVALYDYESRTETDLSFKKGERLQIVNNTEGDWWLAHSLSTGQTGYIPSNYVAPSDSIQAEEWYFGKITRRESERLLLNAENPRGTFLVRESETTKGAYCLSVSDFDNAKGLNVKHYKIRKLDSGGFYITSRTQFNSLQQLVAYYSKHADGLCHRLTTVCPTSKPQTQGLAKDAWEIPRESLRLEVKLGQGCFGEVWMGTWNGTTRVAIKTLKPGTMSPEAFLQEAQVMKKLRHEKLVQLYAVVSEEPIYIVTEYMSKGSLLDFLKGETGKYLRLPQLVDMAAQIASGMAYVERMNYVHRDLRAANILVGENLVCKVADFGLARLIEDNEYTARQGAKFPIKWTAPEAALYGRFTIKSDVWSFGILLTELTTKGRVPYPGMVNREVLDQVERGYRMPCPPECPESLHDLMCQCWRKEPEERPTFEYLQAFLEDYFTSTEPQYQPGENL

[17] = target: Proto-oncogene tyrosine-protein kinase Src (Homo sapiens) (UniProt P12931); test: Inhibition of c-SRC (unknown origin) at 100 nM relative to control
[18] = target: Receptor-type tyrosine-protein kinase FLT3 (Homo sapiens) (UniProt P36888); test: Inhibition of FLT3 (unknown origin) at 100 nM relative to control
[19] = target: Insulin-like growth factor 1 receptor (Homo sapiens) (UniProt P08069); test: Inhibition of IGF1R (unknown origin) at 10 nM relative to control
[20] = target: T1, Hepatocyte growth factor receptor; test: Inhibition of human c-MET at 10 nM relative to control
[21] = target: T1, Hepatocyte growth factor receptor; test: Inhibition of human c-MET at 100 nM relative to control
[22] = target: Proto-oncogene tyrosine-protein kinase receptor Ret (Homo sapiens) (UniProt P07949); test: Inhibition of RET (unknown origin) at 100 nM relative to control
[23] = target: Vascular endothelial growth factor receptor 1 (Homo sapiens) (UniProt P17948); test: Inhibition of VEGFR1 (unknown origin) at 100 nM relative to control
[24] = target: Vascular endothelial growth factor receptor 2 (Homo sapiens) (UniProt P35968); test: Inhibition of human VEGFR2 at 10 nM relative to control
[25] = target: Vascular endothelial growth factor receptor 3 (Homo sapiens) (UniProt P35916); test: Inhibition of VEGFR3 (unknown origin) at 10 nM relative to control
[26] = target: Vascular endothelial growth factor receptor 3 (Homo sapiens) (UniProt P35916); test: Inhibition of VEGFR3 (unknown origin) at 100 nM relative to control
[27] = target: Angiopoietin-1 receptor (Homo sapiens) (UniProt Q02763); test: Inhibition of human TIE2 at 10 nM relative to control
Chain of Angiopoietin-1 receptor (Homo sapiens) (Q02763 whole entry): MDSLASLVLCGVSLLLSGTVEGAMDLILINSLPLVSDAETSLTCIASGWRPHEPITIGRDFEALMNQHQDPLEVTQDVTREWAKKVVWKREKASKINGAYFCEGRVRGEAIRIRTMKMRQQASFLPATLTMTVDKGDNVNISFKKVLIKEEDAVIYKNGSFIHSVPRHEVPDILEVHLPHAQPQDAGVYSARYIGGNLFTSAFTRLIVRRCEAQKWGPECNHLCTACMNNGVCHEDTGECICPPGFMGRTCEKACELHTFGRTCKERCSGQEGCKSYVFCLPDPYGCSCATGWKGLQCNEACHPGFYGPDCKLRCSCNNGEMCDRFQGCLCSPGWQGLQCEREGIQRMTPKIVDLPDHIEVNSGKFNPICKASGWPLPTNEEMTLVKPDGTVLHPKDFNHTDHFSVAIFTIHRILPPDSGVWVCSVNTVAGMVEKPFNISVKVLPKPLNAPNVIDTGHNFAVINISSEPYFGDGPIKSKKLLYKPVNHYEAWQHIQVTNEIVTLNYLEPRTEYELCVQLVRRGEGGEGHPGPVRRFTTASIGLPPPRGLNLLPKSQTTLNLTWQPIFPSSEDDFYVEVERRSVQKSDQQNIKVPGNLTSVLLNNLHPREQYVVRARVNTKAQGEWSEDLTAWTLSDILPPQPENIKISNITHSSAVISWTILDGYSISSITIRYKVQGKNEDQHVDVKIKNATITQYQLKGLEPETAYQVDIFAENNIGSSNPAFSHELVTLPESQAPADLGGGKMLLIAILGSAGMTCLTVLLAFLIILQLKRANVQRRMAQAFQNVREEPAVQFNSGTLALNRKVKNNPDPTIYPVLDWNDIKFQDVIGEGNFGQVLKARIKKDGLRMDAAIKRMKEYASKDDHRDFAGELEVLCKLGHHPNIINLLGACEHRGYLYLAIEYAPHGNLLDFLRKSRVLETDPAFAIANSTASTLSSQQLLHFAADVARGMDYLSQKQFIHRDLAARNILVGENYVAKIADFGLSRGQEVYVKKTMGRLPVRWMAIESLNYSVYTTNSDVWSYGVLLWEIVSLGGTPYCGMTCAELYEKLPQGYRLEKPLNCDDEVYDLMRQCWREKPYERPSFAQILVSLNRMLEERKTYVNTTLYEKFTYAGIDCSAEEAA

[28] = target: Angiopoietin-1 receptor (Homo sapiens) (UniProt Q02763); test: Inhibition of human TIE2 at 100 nM relative to control
[29] = target: Macrophage colony-stimulating factor 1 receptor (Homo sapiens) (UniProt P07333); test: Inhibition of CSF1R (unknown origin) at 10 nM relative to control
[30] = target: Macrophage colony-stimulating factor 1 receptor (Homo sapiens) (UniProt P07333); test: Inhibition of CSF1R (unknown origin) at 100 nM relative to control
[31] = target: Fibroblast growth factor receptor 1 (Homo sapiens) (UniProt P11362); test: Inhibition of FGFR1 (unknown origin) at 10 nM relative to control
[32] = target: Fibroblast growth factor receptor 1 (Homo sapiens) (UniProt P11362); test: Inhibition of FGFR1 (unknown origin) at 100 nM relative to control
[33] = target: Fibroblast growth factor receptor 2 (Homo sapiens) (UniProt P21802); test: Inhibition of FGFR2 (unknown origin) at 100 nM relative to control
[34] = target: Platelet-derived growth factor receptor alpha (Homo sapiens) (UniProt P16234); test: Inhibition of PDGFRalpha (unknown origin) at 10 nM relative to control
Chain of Platelet-derived growth factor receptor alpha (Homo sapiens) (P16234 whole entry): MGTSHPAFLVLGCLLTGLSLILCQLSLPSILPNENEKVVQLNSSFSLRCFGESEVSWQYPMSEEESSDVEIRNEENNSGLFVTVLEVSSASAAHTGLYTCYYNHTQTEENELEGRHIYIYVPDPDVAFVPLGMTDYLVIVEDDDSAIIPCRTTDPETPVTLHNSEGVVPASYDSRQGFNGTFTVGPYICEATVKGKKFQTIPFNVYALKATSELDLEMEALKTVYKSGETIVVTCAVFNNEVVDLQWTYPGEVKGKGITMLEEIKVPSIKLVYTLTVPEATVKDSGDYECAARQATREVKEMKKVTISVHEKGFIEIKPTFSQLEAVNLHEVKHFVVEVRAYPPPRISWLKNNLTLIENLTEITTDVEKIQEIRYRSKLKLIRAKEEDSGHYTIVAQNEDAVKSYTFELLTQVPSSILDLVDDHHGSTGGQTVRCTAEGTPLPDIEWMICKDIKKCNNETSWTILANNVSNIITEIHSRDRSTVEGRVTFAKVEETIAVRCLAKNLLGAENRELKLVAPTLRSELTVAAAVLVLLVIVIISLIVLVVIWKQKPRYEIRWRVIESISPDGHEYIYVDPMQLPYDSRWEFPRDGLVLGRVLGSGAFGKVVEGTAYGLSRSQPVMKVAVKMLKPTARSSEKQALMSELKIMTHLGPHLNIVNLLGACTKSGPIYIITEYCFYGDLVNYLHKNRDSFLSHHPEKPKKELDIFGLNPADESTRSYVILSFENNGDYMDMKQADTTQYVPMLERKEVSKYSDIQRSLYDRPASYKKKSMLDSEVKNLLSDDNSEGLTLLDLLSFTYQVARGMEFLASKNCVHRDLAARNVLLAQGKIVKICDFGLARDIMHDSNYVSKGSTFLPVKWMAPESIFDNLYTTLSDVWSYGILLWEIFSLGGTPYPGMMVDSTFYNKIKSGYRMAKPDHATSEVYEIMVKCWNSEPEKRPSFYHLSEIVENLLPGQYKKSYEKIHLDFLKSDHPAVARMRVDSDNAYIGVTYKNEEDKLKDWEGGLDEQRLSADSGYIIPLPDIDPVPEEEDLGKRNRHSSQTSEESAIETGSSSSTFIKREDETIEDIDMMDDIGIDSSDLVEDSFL

[35] = target: Platelet-derived growth factor receptor alpha (Homo sapiens) (UniProt P16234); test: Inhibition of PDGFRalpha (unknown origin) at 100 nM relative to control
[36] = target: Platelet-derived growth factor receptor beta (Homo sapiens) (UniProt P09619); test: Inhibition of human PDGFRbeta at 100 nM relative to control
[37] = target: Macrophage-stimulating protein receptor (Homo sapiens) (UniProt Q04912); test: Inhibition of RON (unknown origin) at 10 nM relative to control
[38] = target: Macrophage-stimulating protein receptor (Homo sapiens) (UniProt Q04912); test: Inhibition of RON (unknown origin) at 100 nM relative to control

SMILES: CC(=O)OCCn1cc(-c2cnc3ccc(O[C@H](C)c4c(Cl)ccc(F)c4Cl)cc3n2)cn1
- pIC50 (MKN-45 [1]): 6.60

SMILES: C[C@@H](Oc1ccc2ncc(-c3cnn(CCO)c3)nc2c1)c1c(Cl)ccc(F)c1Cl
- pIC50 (MKN-45 [1]): 6.71

SMILES: CC(=O)N1CCC(n2cc(-c3cncc(O[C@H](C)c4c(Cl)ccc(F)c4Cl)c3)cn2)CC1
- pIC50 (MKN-45 [1]): 6.93

SMILES: C[C@H](Oc1cncc(-c2cnn(C3CCNCC3)c2)c1)c1c(Cl)ccc(F)c1Cl
- pIC50 (MKN-45 [1]): 6.10
- pIC50 [2]: 7.04

SMILES: CC(=O)N1CCC(n2cc(-c3cnc(F)c(O[C@H](C)c4c(Cl)ccc(F)c4Cl)c3)cn2)CC1
- pIC50 (MKN-45 [1]): 7.11

SMILES: C[C@@H](Oc1cncc(-c2cnn(C3CCN(CC4CC4)CC3)c2)c1)c1c(Cl)ccc(F)c1Cl
- pIC50 (MKN-45 [1]): 6.51

SMILES: C[C@@H](Oc1cc(-c2cnn(C3CCNCC3)c2)cnc1F)c1c(Cl)ccc(F)c1Cl
- pIC50 (MKN-45 [1]): 6.94

SMILES: C[C@@H](Oc1cc(-c2cnn(C3CCNCC3)c2)cnc1N)c1c(Cl)ccc(F)c1Cl [CRIZOTINIB]
- pIC50 (MKN-45 [1]): 7.42 to 8.04
- inhibition in vivo at 20 mg/kg (MKN-45 [3]): 29%

SMILES: C[C@@H](Oc1cncc(-c2cnn(C3CCN(C)CC3)c2)c1)c1c(Cl)ccc(F)c1Cl
- pIC50 (MKN-45 [1]): 6.64

SMILES: C[C@@H](Oc1cncc(-c2cnn(C3CCN(S(C)(=O)=O)CC3)c2)c1)c1c(Cl)ccc(F)c1Cl
- pIC50 (MKN-45 [1]): 6.61

SMILES: C[C@@H](Oc1cncc(-c2cnn(C3CCNCC3)c2)c1)c1c(Cl)ccc(F)c1Cl
- TGI (MKN-45 [4]): Dose-dependent effect
- pIC50 (MKN-45 [1]): 6.76
- pIC50 [2]: 8.22
- inhibition [5]: 47%
- inhibition in vivo at 20 mg/kg (MKN-45 [3]): 48%
- remaining at 0.5 h [6]: 94%
- remaining at 0.5 h [7]: 85%
- remaining at 0.5 h [8]: 96%
- inhibition at 10 µM (CYP1A2): 55%
- inhibition at 10 µM (CYP2C9): 79%
- inhibition at 10 µM (CYP2C19): 63%
- inhibition at 10 µM (CYP2D6): 28%
- inhibition at 10 µM (CYP3A4): 76%
- inhibition [9]: 43%
- inhibition [10]: 63%
- inhibition [11]: 31%
- inhibition [12]: 17%
- inhibition [13]: 75%
- inhibition [14]: 0%
- inhibition [15]: 4%
- inhibition [16]: -10%
- inhibition [17]: -7%
- inhibition [18]: 8%
- inhibition [19]: -4%
- inhibition [20]: 80%
- inhibition [21]: 100%
- inhibition [22]: -3%
- inhibition [23]: -1%
- inhibition [24]: -4%
- inhibition [25]: -5%
- inhibition [26]: 0%
- inhibition [27]: 2%
- inhibition [28]: 33%
- inhibition [29]: 15%
- inhibition [30]: 67%
- inhibition [31]: -7%
- inhibition [32]: -5%
- inhibition [33]: 0%
- inhibition [34]: 3%
- inhibition [35]: -4%
- inhibition [36]: -10%
- inhibition [37]: -9%
- inhibition [38]: 49%

SMILES: CC(C)N1CCC(n2cc(-c3cncc(O[C@H](C)c4c(Cl)ccc(F)c4Cl)c3)cn2)CC1
- pIC50 (MKN-45 [1]): 6.88

SMILES: C[C@@H](Oc1cncc(-c2cnn(C3CCN(CC(N)=O)CC3)c2)c1)c1c(Cl)ccc(F)c1Cl
- pIC50 (MKN-45 [1]): 6.95

SMILES: C[C@@H](Oc1ccc2ncc(-c3cnn(C)c3)nc2c1)c1c(Cl)ccc(F)c1Cl
- pIC50 (MKN-45 [1]): 6.13
